Results taken from PubChem BioAssay (NCI).
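Assay format: 96-well plates, 48-hour exposure. GI50: concentration for 50% inhibition of growth. TGI denotes the concentration required for complete inhibition of growth.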

Assays:
Assay in all cases: growth of human tumour cells (NCI), 48 h
UACC-62 melanoma = tested on: UACC-62 melanoma
KM12 colon = tested on: KM12 colon
NCI-H226 lung = tested on: NCI-H226 lung
SN12C renal = tested on: SN12C renal
RXF 393 renal = tested on: RXF 393 renal
786-0 renal = tested on: 786-0 renal
MDA-MB-468 breast = tested on: MDA-MB-468 breast
OVCAR-3 ovarian = tested on: OVCAR-3 ovarian
SK-OV-3 ovarian = tested on: SK-OV-3 ovarian
TK-10 renal = tested on: TK-10 renal
COLO 205 colon = tested on: COLO 205 colon
HS 578T breast = tested on: HS 578T breast
SF-295 CNS = tested on: SF-295 CNS
A498 renal = tested on: A498 renal
MDA-MB-435 = tested on: MDA-MB-435
SNB-19 CNS = tested on: SNB-19 CNS
SNB-75 CNS = tested on: SNB-75 CNS
U251 CNS = tested on: U251 CNS
CCRF-CEM leukemia = tested on: CCRF-CEM leukemia
SK-MEL-2 melanoma = tested on: SK-MEL-2 melanoma
IGROV1 ovarian = tested on: IGROV1 ovarian
SF-539 CNS = tested on: SF-539 CNS
PC-3 prostate = tested on: PC-3 prostate
ACHN renal = tested on: ACHN renal
UO-31 renal = tested on: UO-31 renal
SR leukemia = tested on: SR leukemia
MOLT-4 leukemia = tested on: MOLT-4 leukemia
HCT-116 colon = tested on: HCT-116 colon
DU-145 prostate = tested on: DU-145 prostate
SK-MEL-28 melanoma = tested on: SK-MEL-28 melanoma

Cc1ccc(-c2nc(C#N)c(S(=O)(=O)N3CCN(S(C)(=O)=O)CC3)o2)cc1
TGI (UACC-62 melanoma): > 100 µM | GI50 (KM12 colon): > 100 µM | TGI (KM12 colon): > 100 µM | GI50 (NCI-H226 lung): > 100 µM | TGI (NCI-H226 lung): > 100 µM | GI50 (SN12C renal): 75.1 µM | TGI (SN12C renal): > 100 µM | GI50 (RXF 393 renal): 75.6 µM | TGI (RXF 393 renal): > 100 µM | GI50 (786-0 renal): 64 µM | TGI (786-0 renal): > 100 µM | GI50 (MDA-MB-468 breast): 28.2 µM | TGI (MDA-MB-468 breast): > 100 µM | GI50 (OVCAR-3 ovarian): 24.6 µM | TGI (OVCAR-3 ovarian): > 100 µM | GI50 (SK-OV-3 ovarian): > 100 µM | TGI (SK-OV-3 ovarian): > 100 µM | GI50 (TK-10 renal): > 100 µM | TGI (TK-10 renal): > 100 µM | GI50 (COLO 205 colon): > 100 µM | TGI (COLO 205 colon): > 100 µM | GI50 (HS 578T breast): > 100 µM | TGI (HS 578T breast): > 100 µM | GI50 (SF-295 CNS): 61.7 µM | TGI (SF-295 CNS): > 100 µM | GI50 (A498 renal): > 100 µM | TGI (A498 renal): > 100 µM | GI50 (MDA-MB-435): 37.8 µM | TGI (MDA-MB-435): > 100 µM | GI50 (SNB-19 CNS): > 100 µM | TGI (SNB-19 CNS): > 100 µM | GI50 (SNB-75 CNS): > 100 µM | TGI (SNB-75 CNS): > 100 µM | GI50 (U251 CNS): 51.7 µM | TGI (U251 CNS): > 100 µM | GI50 (CCRF-CEM leukemia): 3.83 µM | TGI (CCRF-CEM leukemia): > 100 µM | GI50 (SK-MEL-2 melanoma): > 100 µM | TGI (SK-MEL-2 melanoma): > 100 µM | GI50 (IGROV1 ovarian): > 100 µM | TGI (IGROV1 ovarian): > 100 µM | GI50 (SF-539 CNS): 73.3 µM | TGI (SF-539 CNS): > 100 µM | GI50 (PC-3 prostate): > 100 µM | TGI (PC-3 prostate): > 100 µM | GI50 (ACHN renal): 44.1 µM | TGI (ACHN renal): > 100 µM | GI50 (UO-31 renal): > 100 µM | TGI (UO-31 renal): > 100 µM | GI50 (SR leukemia): 3.16 µM | TGI (SR leukemia): 26 µM | GI50 (MOLT-4 leukemia): 7.61 µM | TGI (MOLT-4 leukemia): 37 µM | GI50 (HCT-116 colon): 11.8 µM | TGI (HCT-116 colon): 34.7 µM | GI50 (DU-145 prostate): > 100 µM | TGI (DU-145 prostate): > 100 µM | GI50 (SK-MEL-28 melanoma): > 100 µM | TGI (SK-MEL-28 melanoma): > 100 µM
